For data set [1], the target named is T1, recombinant guanylate cyclase reporter cell line (Rattus norvegicus, UniProt P20595).
T1 construct: expressed in transfected cells; CHO by own knowledge of the cited Wunder et al. 2005
T1 sequence (P20595 1-619): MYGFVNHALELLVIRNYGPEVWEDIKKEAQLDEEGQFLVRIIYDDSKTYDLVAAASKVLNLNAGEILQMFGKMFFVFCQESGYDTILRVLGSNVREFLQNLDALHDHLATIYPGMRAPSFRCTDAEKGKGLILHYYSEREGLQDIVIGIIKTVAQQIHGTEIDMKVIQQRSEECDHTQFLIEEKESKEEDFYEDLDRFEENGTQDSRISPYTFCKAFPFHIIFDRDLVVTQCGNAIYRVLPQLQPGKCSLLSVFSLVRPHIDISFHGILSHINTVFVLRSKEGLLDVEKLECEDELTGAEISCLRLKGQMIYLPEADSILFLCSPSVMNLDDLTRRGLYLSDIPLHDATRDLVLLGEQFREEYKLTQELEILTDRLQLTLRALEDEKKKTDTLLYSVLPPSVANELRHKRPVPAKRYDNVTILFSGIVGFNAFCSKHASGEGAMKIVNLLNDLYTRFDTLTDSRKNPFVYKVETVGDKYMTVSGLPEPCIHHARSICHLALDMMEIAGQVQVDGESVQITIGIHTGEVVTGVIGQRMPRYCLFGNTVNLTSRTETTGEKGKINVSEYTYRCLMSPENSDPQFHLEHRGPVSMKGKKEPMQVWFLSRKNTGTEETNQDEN
T1 sequence (P19686 1-690 partner): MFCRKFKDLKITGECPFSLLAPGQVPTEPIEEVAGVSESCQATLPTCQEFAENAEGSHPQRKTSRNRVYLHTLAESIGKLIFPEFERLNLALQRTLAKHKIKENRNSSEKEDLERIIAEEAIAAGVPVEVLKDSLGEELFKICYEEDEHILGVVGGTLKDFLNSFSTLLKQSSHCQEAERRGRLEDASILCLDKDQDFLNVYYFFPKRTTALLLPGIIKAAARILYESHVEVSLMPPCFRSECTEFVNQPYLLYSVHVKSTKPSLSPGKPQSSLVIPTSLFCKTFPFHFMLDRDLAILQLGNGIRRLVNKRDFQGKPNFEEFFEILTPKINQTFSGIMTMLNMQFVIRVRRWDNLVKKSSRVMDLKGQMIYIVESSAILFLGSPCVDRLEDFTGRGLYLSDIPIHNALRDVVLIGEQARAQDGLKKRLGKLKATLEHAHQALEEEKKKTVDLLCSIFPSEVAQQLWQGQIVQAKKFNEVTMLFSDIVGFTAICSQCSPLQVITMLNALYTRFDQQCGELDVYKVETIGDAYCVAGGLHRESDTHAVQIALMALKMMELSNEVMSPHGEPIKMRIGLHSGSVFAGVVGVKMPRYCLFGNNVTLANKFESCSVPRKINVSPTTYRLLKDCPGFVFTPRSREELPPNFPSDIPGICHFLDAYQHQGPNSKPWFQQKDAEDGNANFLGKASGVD
The data set can be described thus: Effect on a recombinant guanylate cyclase reporter cell line. It counts as cell-based. As for the experimental part: B-1. Effect on a Recombinant Guanylate Cyclase Reporter Cell Line
The cellular activity of the compounds according to the invention was determined using a recombinant guanylate cyclase reporter cell line, as described in F. Wunder et al., Anal. Biochem. 339, 104-112 (2005).

Data set [2] can be described thus: Pharmacokinetic parameters following intravenous and oral administration in dogs. It counts as in vivo, female beagles. The following applies: for MRT / clearance / half-life: female, beagle, dog, plasma; for clearance: read-out: CLplasma (converted); for half-life: read-out: t½ (converted). The method, then:
(§1) B-2. Determination of Pharmacokinetic Parameters Following Intravenous and Oral Administration
(§2) The pharmacokinetic parameters of the compounds according to the invention were determined in male Wistar rats and/or in female beagles and/or in cynomolgus monkeys and/or in male CD-1 mice. Intravenous administration in the case of mice and rats was carried out by means of a species-specific plasma/DMSO formulation, and in the case of dogs and monkeys by means of a water/PEG400/ethanol formulation. In all species, oral administration of the dissolved substance was performed via gavage, based on a water/PEG400/ethanol formulation.
(§3) An internal standard (which may also be a chemically unrelated substance) was added to the samples of the compounds of the invention, calibration samples and qualifiers, and there followed protein precipitation by means of acetonitrile in excess. Addition of a buffer solution matched to the LC conditions, and subsequent vortexing, was followed by centrifugation at 1000 g. The supernatant was analysed by LC-MS/MS using C18 reversed-phase columns and variable mobile phase mixtures. The substances were quantified via the peak heights or areas from extracted ion chromatograms of specific selected ion monitoring experiments.
(§4) The plasma concentration/time plots determined were used to calculate the pharmacokinetic parameters such as AUC, Cmax, t1/2 (terminal half-life), F (bioavailability), MRT (mean residence time) and CL (clearance), by means of a validated pharmacokinetic calculation program.
(§5) Since the substance quantification was performed in plasma, it was necessary to determine the blood/plasma distribution of the substance in order to be able to adjust the pharmacokinetic parameters correspondingly.
(§6) For this purpose, a defined amount of substance was incubated in K3 EDTA whole blood of the species in question in a rocking roller mixer for 20 min. After centrifugation at 1000 g, the plasma concentration was measured (by means of LC-MS/MS; see above) and determined by calculating the ratio of the Cblood/Cplasma value.

Data set [3] in a line: Pharmacokinetic parameters following intravenous and oral administration in rats. It counts as in vivo, male Wistar rats. The following applies: for clearance / MRT / half-life: male, Wistar, rat, plasma; for clearance: read-out: CLplasma (converted); for MRT: read-out: MRT; for half-life: read-out: t½ (converted). As for the experimental part:
as §1, §2, §3, §4, §5, §6

The mark [4] stands for this setting: intravenous administration (i.v.).

Structures can show the parent of a compound that is named as a salt. Where two headings read alike, the source gives them in different places.

Regarding `CC(C)CN1CCN(c2ccc(-c3ccc(Cl)cc3N3CCC[C@@H](n4ncc(C(=O)O)c4C(F)F)C3)cc2)CC1` (single isomer, unassigned) [Example 2, 1-[1-{4-Chloro-4′-[4-(2-methylpropyl)piperazin-1-yl][1,1′-biphenyl]-2-yl}piperidin-3-yl]-5-(difluoromethyl)-1H-pyrazole-4-carboxylic acid], in data set [1], the concentration for a half-maximal effect (EC50) worked out at 8.6 nM and the “MEC (minimum effective concentration)” value worked out at 1.0 nM. In data set [2] (setting [4]), the mean residence time (MRT) is 25.6 h, the clearance was 0.167 mL/min/kg, the half-life is 17.7 h and the AUCnorm worked out at 81.7 kg·h/L. In addition, in data set [2] (oral administration (p.o.)), the MRT was 21.3 h, the half-life was 14 h, the AUCnorm was found to be 67.7 kg·h/L and the F was 82.8%. In addition, the AUCnorm in data set [3] (intravenous administration) was 7.08 kg·h/L. Besides, in data set [3] (iv, intravenous administration), the clearance is 2.33 mL/min/kg, the mean residence time (MRT) worked out at 3.44 h and the half-life was 3.13 h. Moreover, in data set [3] (po, oral administration (p.o.)), the MRT amounted to 6.23 h and the half-life is 3.96 h. In data set [3] (oral administration (p.o.)), this molecule registered an AUCnorm of 3.77 kg·h/L and an F of 53.3%.
For the molecule `CC(C)CN1CCN(c2ccc(-c3ccc(Cl)cc3N3CCCC(n4ncc(C(=O)O)c4C(F)(F)F)C3)cc2)CC1` (single isomer, unassigned) [Example 9, 1-[1-{4-chloro-4′-[4-(2-methylpropyl)piperazin-1-yl][1,1′-biphenyl]-2-yl}piperidin-3-yl]-5-(trifluoromethyl)-1H-pyrazole-4-carboxylic acid hydrochloride], in data set [1], the EC50 was 11 nM. Also, the “MEC (minimum effective concentration)” value in data set [1] (hydrochloride) turned out to be 2.2 nM. Further, the MRT is 10.3 h in data set [2] (setting [4]); 13.7 h in data set [2] (oral administration (p.o.)); 5.83 h in data set [3] (iv, intravenous administration); 8.51 h in data set [3] (po, oral administration (p.o.)). In addition, the clearance is 0.5 mL/min/kg in data set [2] (setting [4]) and 3 mL/min/kg in data set [3] (iv, intravenous administration). Also, the half-life is 7.86 h in data set [2] (setting [4]); 9.28 h in data set [2] (oral administration (p.o.)); 4.1 h in data set [3] (iv, intravenous administration); 4.96 h in data set [3] (po, oral administration (p.o.)). Further, the AUCnorm in data set [2] (setting [4]) stood at 37.4 kg·h/L; in data set [2] (oral administration (p.o.)), 31.7 kg·h/L; in data set [3] (intravenous administration), 5.48 kg·h/L; in data set [3] (oral administration (p.o.)) it was 4.50 kg·h/L. Besides, the F in data set [2] (oral administration (p.o.)) is 84.8%; in data set [3] (oral administration (p.o.)), 82.1%.
As for `O=C(O)c1cnn(C2CCCN(c3cc(Cl)ccc3-c3ccc(N4CCN(CC5CC5)CC4)cc3)C2)c1C(F)(F)F` (single isomer, unassigned) [Example 10, 1-[1-[5-Chloro-2-[4-[4-(cyclopropylmethyl)piperazin-1-yl]phenyl]phenyl]-3-piperidyl]-5-(trifluoromethyl)pyrazole-4-carboxylic acid hydrochloride], in data set [1], the EC50 is 10.3 nM and the “MEC (minimum effective concentration)” value stood at 2.0 nM. For the same molecule, in data set [3] (intravenous administration), the AUCnorm amounted to 1.37 kg·h/L. Further, in data set [3] (iv, intravenous administration), the clearance is 12.2 mL/min/kg, the MRT is 2.39 h and the half-life is 1.89 h. Besides, in data set [3] (po, oral administration (p.o.)), the mean residence time (MRT) was 4.04 h and the half-life is 3.41 h. In data set [3] (oral administration (p.o.)), this molecule gave an AUCnorm of 0.52 kg·h/L and an F of 37.4%.

(Values after US20230346777A1, “USE OF SGC ACTIVATORS FOR THE TREATMENT OF OPHTHALMOLOGIC DISEASES” (Bayer Aktiengesellschaft, priority 2020, published 2023).)
